# Assay results reported in US11325940B2, “Certain chemical entities, compositions, and methods” (NeuPharma, Inc., priority 2012, dated 2022).
# Read-outs that look alike come from different tables or passages of the source.
# Experiments:
# [1] = Equilibrium solubility in aqueous buffer (HPLC UV); type: physicochemical; conditions: thermodynamic from solid
# Method: The equilibrium solubility of compounds was measured in aqueous buffer. Excess amount of solid compound was added into buffer solution and the sample was briefly sonicated and then shaken at rt for 24 h. The sample was filtered and the concentration was analyzed by HPLC UV. A standard solution at 0.2 mg/mL was prepared in methanol or acetonitrile for each compound and used as an external standard for quantification. The scale utilized in Tables 2 is as follows: +++ greater than 1 mg/mL; ++ between 1 and 0.1 mg/mL; and + less than 0.1 mg/mL.
# [2] = system: A549 cells; experiment: Inhibition of cancer cell growth, MTT assay; type: cell-based; conditions: Homo sapiens; A549 cells, 72 h compound exposure, MTT; read-out: IC50
# Method: Inhibition of cell growth by compounds was measured using MTT assay (Mosmann, T., Journal of Immunological Methods, 1983, 65, 55-63). Tumor cell lines were purchased from ATCC (American Type Culture Collection, Manassas, Va.). All cell lines were maintained in RPMI 1640 (Hyclone) supplemented with 10% fetal bovine serum (FBS, Hyclone), glutamine (2 mM, Hyclone), and antibiotics (penicillin 100 U/mL and streptomycin 50 μg/mL) at 37° C. in a humidified atmosphere of 5% CO2 in air. Taxol (as a positive control, Sigma) and compounds were dissolved in DMSO (Sigma), and the final concentration of DMSO in the medium was 1%. Tumor cells were plated in 96-well plates at densities of about 4000 cells/well of a 96-well plate and allowed to adhere/grow for 24 h. They were then treated with various concentrations of drug for 72 h. 3-(4,5-Dimethylthiazol-2-yl)-2,5-diphenyltetrazolium bromide (MTT, Sigma) was used to determine the number of viable cells at the time of compound addition and the number of cells remaining after 72 h compound exposure. The number of cells remaining after 72 h was compared to the number of viable cells at the time of compound addition by measuring the absorbance at 570 nm, allowing for the calculation of growth inhibition.
# All concentrations of compounds were tested in triplicate and controls were averaged over 4 wells. IC50 was calculated by plotting the concentration of compound vs the percentage of inhibition in treated wells using GraphPad Prism 5. […] The scale utilized in Table 3 is as follows: ++++ less than 20 nM; +++ between 20 nM and 100 nM; ++ between 100 nM and 1000 nM; and + greater than 1000 nM.
# [3] = aqueous buffer, equilibrium solubility, NaOAc/AcOH buffer (100 mM, pH 5.0), rt, 24 h, read-out: Solubility
SMILES,"solubility at 24 h ([1]; pH 5, aqueous buffer)",IC50 [2],"solubility at 24 h [1, 3]"
"C[C@]12CCC(NC(=O)N3CCNCC3)C[C@H]1CC[C@@H]1[C@@H]2CC[C@]2(C)[C@@H](C3=CC(=O)OC3)CC[C@]12O (stereo partly drawn) [Compound C24, N-((5R,8R,9S,10S,13R,14S,17R)-14-hydroxy-10,13-dimethyl-17-(5-oxo-2,5-dihydrofuran-3-yl)hexadecahydro-1H-cyclopenta[a]phenanthren-3-yl)piperazine-1-carboxamide]",> 1000 µg/mL,20 to 100 nM,
"C[C@@H](N)C(=O)N[C@H]1CC[C@@]2(C)[C@H](CC[C@@H]3[C@@H]2CC[C@]2(C)[C@@H](c4ccc(=O)oc4)CC[C@]32O)C1 [Compound C26, (R)-2-amino-N-((3S,5R,8R,9S,10S,13R,14S,17R)-14-hydroxy-10,13-dimethyl-17-(2-oxo-2H-pyran-5-yl)hexadecahydro-1H-cyclopenta[a]phenanthren-3-yl)propanamide]",,< 20 nM,> 1000 µg/mL
"C[C@]12CCC(NCCN3CCCC3)C[C@H]1CC[C@@H]1[C@@H]2CC[C@]2(C)[C@@H](c3ccc(=O)oc3)CC[C@]12O (stereo partly drawn) [Compound C27, 5-((5R,8R,9S,10S,13R,14S,17R)-14-hydroxy-10,13-dimethyl-3-((2-(pyrrolidin-1-yl)ethyl)amino)hexadecahydro-1H-cyclopenta[a]phenanthren-17-yl)-2H-pyran-2-one]",,< 20 nM,> 1000 µg/mL
"C[C@]12CCC(N3CCOCC3)C[C@H]1CC[C@@H]1[C@@H]2CC[C@]2(C)[C@@H](c3ccc(=O)oc3)CC[C@]12O (stereo partly drawn) [Compound C28, 5-((5R,8R,9S,10S,13R,14S,17R)-14-hydroxy-10,13-dimethyl-3-morpholinohexadecahydro-1H-cyclopenta[a]phenanthren-17-yl)-2H-pyran-2-one]",,100 to 1000 nM,> 1000 µg/mL
"C[C@]12CCC(NC(=O)N3CCOCC3)C[C@@]1(O)CC[C@@H]1[C@@H]2CC[C@]2(C)[C@@H](c3ccc(=O)oc3)CC[C@]12O (stereo partly drawn) [Compound C30, N-((5S,8R,9S,10R,13R,14S,17R)-5,14-dihydroxy-10,13-dimethyl-17-(2-oxo-2H-pyran-5-yl)hexadecahydro-1H-cyclopenta[a]phenanthren-3-yl)morpholine-4-carboxamide]",,20 to 100 nM,100 to 1000 µg/mL
"CN(CCO)C1CC[C@@]2(C)[C@H](CC[C@@H]3[C@@H]2CC[C@]2(C)[C@@H](c4ccc(=O)oc4)CC[C@]32O)C1 (stereo partly drawn) [Compound C32, 5-((5R,8R,9S,10S,13R,14S,17R)-14-hydroxy-3-((2-hydroxyethyl)(methyl)amino)-10,13-dimethylhexadecahydro-1H-cyclopenta[a]phenanthren-17-yl)-2H-pyran-2-one]",,100 to 1000 nM,< 100 µg/mL
